From patent US10285983B2, “3-(1H-pyrrolo[2,3-B]pyridin-2-yl)-1H-pyrazolo[3,4-B] pyridines and therapeutic uses thereof” (Samumed, LLC, priority 2015, dated 2019)

Tests used:
Format in all cases: cell-based
[1] = test system: Wnt activity (Sp5-Luc reporter, SW480 colon carcinoma cells); experiment: Wnt activity screening assay, Sp5-Luc reporter gene in SW480 cells; settings: Homo sapiens; for inhibition at 10 µM: given for EC50 >10 μM, read-out: percent inhibition at 10 μM; for EC50: overnight incubation
Source text: The screening assay for Wnt activity is described as follows. Reporter cell lines can be generated by stably transducing cancer cell lines (e.g., colon cancer) or primary cells (e.g., IEC-6 intestinal cells) with a lentiviral construct that includes a Wnt-responsive promoter driving expression of the firefly luciferase gene.
SW480 colon carcinoma cells were transduced with a lentiviral vector expressing luciferase with a human Sp5 promoter consisting of a sequence of eight TCF/LEF binding sites. SW480 cells stably expressing the Sp5-Luc reporter gene and a hygromycin resistance gene were selected by treatment with 150 μg/mL of hygromycin for 7 days. These stably transduced SW480 cells were expanded in cell culture and used for all further screening activities. Each compound was dissolved in DMSO as a 10 mM stock and used to prepare compound source plates. Serial dilution (1:3, 10-point dose-response curves starting from 10 μM) and compound transfer was performed using the ECHO 550 (Labcyte, Sunnyvale, Calif.) into 384-well white solid bottom assay plates (Greiner Bio-One) with appropriate DMSO backfill for a final DMSO concentration of 0.1%. For Sp5-Luc reporter gene assays, the cells were plated at 4,000 cells/well in 384-well plates with medium containing 1% fetal bovine serum and incubated overnight at 37° C. and 5% CO2. Following incubation, 20 μl of BrightGlo luminescence reagent (Promega) was added to each well of the 384-well assay plates. The plates were placed on an orbital shaker for 2 min and then luminescence was quantified using the Envision (Perkin Elmer) plate reader. Readings were normalized to DMSO only treated cells, and normalized activities were utilized for EC50 calculations using the dose-response log (inhibitor) vs. response—variable slope (four parameters) nonlinear regression feature available in GraphPad Prism 5.0 (or Dotmatics). For EC50 of >10 μM, the percent inhibition at 10 μM is provided.

SW480 colon cancer cells = experiment: Cell viability assay (CellTiter-Blue); settings: Homo sapiens, 96 h, four days; for inhibition at 10 µM: given for EC50 >10 μM, read-out: percent inhibition at 10 μM
Protocol: Representative compounds were screened using the following assay procedure to assess the effect on cell viability as described below.
Each compound was dissolved in DMSO as a 10 mM stock and used to prepare compound source plates. Serial dilution (1:3, 8-point dose-response curves from 10 μM to 0.0045 μM) and compound transfer was performed using the ECHO 550 (Labcyte, Sunnyvale, Calif.) into 96-well clear bottom, black-walled plates (Corning-Costar).
Approximately 2×10^3 SW480 colon cancer cells were seeded into each well and allowed to incubate in the presence or absence of compound for four days at 37° C./5% CO2. Eight replicates of DMSO-treated cells served as controls and cells treated with compound were performed in duplicate.
After incubation, 20 μL of CellTiter-Blue (Promega) was added to each well allowed to incubate for approximately 3 hours. This reagent was a buffered solution which contains resazurin, metabolically active cells were able to reduce rezarurin (blue) into resorufin (pink) which was highly fluorescent. This measured fluorescence was used as a readout for cell viability.
After incubation, the plates were read at Ex 560 nm Em 590 nm (Cytation 3, BioTek). Dose-response curves were generated and EC50 concentration values were calculated using non-linear regression curve fit in the GraphPad Prism (San Diego, Calif.) or Dotmatics' Studies Software (Bishops Stortford, UK). For EC50 of >10 μM, the percent inhibition at 10 μM is provided.

[2] = test system: primary human fibroblasts derived from IPF patients (LL29 cells); experiment: Inhibition of fibrotic process, αSMA staining in TGF-β1 treated LL29 fibroblasts; settings: Fibroblast, 96 h, TGF-β1 20 ng/mL, 4 days; for EC50: % αSMA positive cells
Source text: Representative compounds were screened using primary human fibroblasts (derived from IPF patients) treated with TGF-β1 to determine their ability to inhibit the fibrotic process.
Primary human fibroblasts derived from IPF patients (LL29 cells) [^1Xiaoqiu Liu, et. al., “Fibrotic Lung Fibroblasts Show Blunted Inhibition by cAMP Due to Deficient cAMP Response Element-Binding Protein Phosphorylation”, Journal of Pharmacology and Experimental Therapeutics (2005), 315(2), 678-687; ^2Watts, K. L., et. al., “RhoA signaling modulates cyclin D1 expression in human lung fibroblasts; implications for idiopathic pulmonary fibrosis”, Respiratory Research (2006), 7(1), 88] were obtained from American Type Culture Collection (ATCC) and expanded in F12 medium supplemented with 15% Fetal Bovine Serum and Penicillin/Streptomycin.
Each compound was dissolved in DMSO as a 10 mM stock and used to prepare compound source plates. Serial dilution (1:2, 11-point dose-response curves from […] to […]) and compound transfer was performed using the ECHO 550 (Labcyte, Sunnyvale, Calif.) into 384-well clear bottom assay plates (Greiner Bio-One) with appropriate DMSO backfill for a final DMSO concentration of 0.1%. LL29 cells are plated at 1,500 cells/well in 80 μL/well F12 medium supplemented with 1% Fetal Bovine Serum. One hour after addition of the cells, TGF-β1 (Peprotech; 20 ng/mL) was added to the plates to induce fibrosis (ref. 1 and 2 above). Wells treated with TGF-β1 and containing DMSO were used as controls. Cells were incubated at 37° C. and 5% CO2 for 4 days. Following incubation for 4 days, SYTOX green nucleic acid stain (Life Technologies [Thermo Fisher Scientific]) was added to the wells at a final concentration of 1 μM and incubated at room temperature for 30 min. Cells were then fixed using 4% formaldehyde (Electron Microscopy Sciences), washed 3 times with PBS followed by blocking and permeabilization using 3% Bovine Serum Albumin (BSA; Sigma) and 0.3% Triton X-100 (Sigma) in PBS. Cells were then stained with antibody specific to α-smooth muscle actin (αSMA; Abcam) (ref. 1 and 2 above) in 3% Bovine Serum Albumin (BSA; Sigma) and 0.3% Triton X-100 (Sigma) in PBS, and incubated overnight at 4° C. Cells were then washed 3 times with PBS, followed by incubation with Alexa Flor-647 conjugated secondary antibody (Life Technologies [Thermo Fisher Scientific]) and DAPI at room temperature for 1 hour. Cells were then washed 3 times with PBS and plates were sealed for imaging. αSMA staining was imaged by excitation at 630 nm and emission at 665 nm and quantified using the Compartmental Analysis program on the CellInsight CX5 (Thermo Scientific). Dead or apoptotic cells were excluded from analysis based on positive SYTOX green staining. % of total cells positive for αSMA were counted in each well and normalized to the average of 11 wells treated with TGF-β1 on the same plate using Dotmatics' Studies Software. The normalized averages (fold change over untreated) of 3 replicate wells for each compound concentration were used to create dose-responses curves and EC50 values were calculated using non-linear regression curve fit in the Dotmatics' Studies Software. For EC50 of >10 μM, the percent inhibition at 10 μM is provided.

[3] = test system: IL-6 (THP-1 human monocyte cell line); experiment: IL-6 inhibition in LPS-stimulated THP-1 cells (HTRF); settings: LPS 500 ng/mL, 22 hours, IL6 HTRF
Protocol: Human monocyte cell line (THP-1 cells; Catalog # TIB-202, ATCC, Manassas, Va.) were cultured in Roswell Park Memorial Institute (RPMI) 1640 Medium (Catalog #21870-100, Buffalo, N.Y.) with 1% L-glutamine, 1% HEPES, 1% Sodium Pyruvate, 2% Sodium Bicarbonate supplemented with 100 units/mL penicillin, 50 μg/mL streptomycin, 2-mercaptoethanol (0.05 mM) [basal medium] and 10% fetal bovine serum (Catalog #16140089, Life Technologies, Carlsbad, Calif.) at 37° C. and 5% CO2.
THP-1 cells were cultured in basal media with 1% FBS for 24 hours before the start of the assay. Each compound was dissolved in DMSO as a 10 mM stock and used to prepare compound source plates. Serial dilution (1:3, 10-point dose-response curves starting from […]) and compound transfer was performed using the ECHO 550 (Labcyte, Sunnyvale, Calif.) into 384-well white low volume assay plates (Greiner Bio-One) with appropriate DMSO backfill for a final DMSO concentration of 0.1%. THP-1 cells were plated at 5000 cells/well in the 384-well plates and incubated at 37° C. for 2 h. 500 ng/mL of LPS was added after 2 hours and cells were incubated for another 22 hours at 37° C. Plates were spun in a centrifuge for 1 minute at 10,000 rpm and a mixture of anti-IL6 XL665, and anti-IL6 Cryptate diluted in reconstitution buffer (Cisbio Inc.) was added to each well. Following incubation for 3 hrs at room temperature, Homogeneous Time-Resolved Fluorescence (HTRF) was measured using the Envision (Perkin Elmer) at 665 nm and […]. The ratio of fluorescence at 665 nm to 620 nm was used as a readout for IL6 quantification. All samples were processed in duplicate. Readings were normalized to DMSO treated cells and normalized activities were utilized for EC50 calculations using the dose-response log (inhibitor) vs. response—variable slope (four parameters) nonlinear regression feature available in GraphPad Prism 5.0 (or Dotmatics). For EC50 of >10 μM, the percent inhibition at 10 μM is provided.

## c1cc(N2CCCCC2)c2cc(-c3n[nH]c4ncc(C5CCNCC5)cc34)[nH]c2n1 [Compound 601, 3-(4-(Piperidin-1-yl)-1H-pyrrolo[2,3-b]pyridin-2-yl)-5-(piperidin-4-yl)-1H-pyrazolo[3,4-b]pyridine]
[1]
  inhibition at 10 µM: 36.6%
  EC50: > 10 µM
SW480 colon cancer cells
  EC50: 5.38 µM
[2]
  EC50: 9.66 µM
[3]
  EC50: 3.89 µM

## O=C(Nc1cncc(-c2cnc3[nH]nc(-c4cc5c(N6CCCCC6)ccnc5[nH]4)c3c2)c1)C1CC1 [Compound 188, N-(5-(3-(4-(Piperidin-1-yl)-1H-pyrrolo[2,3-b]pyridin-2-yl)-1H-pyrazolo[3,4-b]pyridin-5-yl)pyridin-3-yl)cyclopropanecarboxamide]
[1]
  EC50: 3.31 µM
SW480 colon cancer cells
  EC50: > 10 µM
  inhibition at 10 µM: 40.8%
[2]
  EC50: 1.79 µM
[3]
  EC50: 0.348 µM

## CC(C)(C)C(=O)Nc1cncc(-c2cnc3[nH]nc(-c4cc5c(-c6ccc(F)cc6)ccnc5[nH]4)c3c2)c1 [Compound 36, N-(5-(3-(4-(4-Fluorophenyl)-1H-pyrrolo[2,3-b]pyridin-2-yl)-1H-pyrazolo [3,4-b]pyridin-5-yl)pyridin-3-yl)pivalamide]
[1]
  inhibition at 10 µM: 12.7%
  EC50: > 10 µM
SW480 colon cancer cells
  EC50: > 10 µM
  inhibition at 10 µM: 11.9%
[2]
  EC50: > 10 µM
[2]; given for EC50 >10 μM, read-out: percent inhibition at 10 μM
  inhibition at 10 µM: 33.9%

## Fc1cccc(-c2ccnc3[nH]c(-c4n[nH]c5ncc(-c6cncc(CNCc7ccccc7)c6)cc45)cc23)c1 [Compound 24, N-Benzyl-1-(5-(3-(4-(3-fluorophenyl)-1H-pyrrolo[2,3-b]pyridin-2-yl)-1H-pyrazolo[3,4-b]pyridin-5-yl)pyridin-3-yl)methanamine]
[1]
  inhibition at 10 µM: 25.8%
  EC50: > 10 µM
SW480 colon cancer cells
  EC50: 2.45 µM
[2]
  EC50: 1.05 µM
[3]
  EC50: 4.16 µM
